Experimental findings from patent US9562035B2, “Benzamide derivative useful as FASN inhibitors for the treatment of cancer” (Janssen Pharmaceutica NV, priority 2013, dated 2017) are described below.

Assay [1] concerns the target T1, hFASN enzyme (full length) (Homo sapiens, UniProt P49327).
T1 construct: 10 μL hFASN enzyme (full length, 300 ng, purified in house); made in house
As to the kind of experiment: Fatty Acid Synthase (FASN) Inhibition Scintillation Proximity Assay. The class given is biochemical. Conditions: for IC50: mean where tested more than once, ~ = standard error of pIC50 larger than 0.5; for inhibition at 10 µM: read-out: FASN % Effect @1E−05M. In a few lines:
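Purified full-length human FASN (300 ng) incubated 60 min at room temperature with NADPH, [3H]-acetyl-CoA and malonyl-CoA in 100 mM KH2PO4 pH 7.5, 1 mM DTT; compound at 30 μM to 0.01 μM. [3H]-palmitate captured by SPA imaging beads; IC50 from 4-parameter fit, reported as pIC50.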
A general note: Scintillation proximity formats need no separation of bound from free tracer.

Assay [2] deals with T2, FASN Keto-reductase Domain (Homo sapiens, UniProt P49327).
T2 construct: 10 μL hFASN enzyme (full length, 300 ng, purified in house) and 360 μM NADPH; made in house
T2 sequence (P49327 whole entry, the tested form may be a part): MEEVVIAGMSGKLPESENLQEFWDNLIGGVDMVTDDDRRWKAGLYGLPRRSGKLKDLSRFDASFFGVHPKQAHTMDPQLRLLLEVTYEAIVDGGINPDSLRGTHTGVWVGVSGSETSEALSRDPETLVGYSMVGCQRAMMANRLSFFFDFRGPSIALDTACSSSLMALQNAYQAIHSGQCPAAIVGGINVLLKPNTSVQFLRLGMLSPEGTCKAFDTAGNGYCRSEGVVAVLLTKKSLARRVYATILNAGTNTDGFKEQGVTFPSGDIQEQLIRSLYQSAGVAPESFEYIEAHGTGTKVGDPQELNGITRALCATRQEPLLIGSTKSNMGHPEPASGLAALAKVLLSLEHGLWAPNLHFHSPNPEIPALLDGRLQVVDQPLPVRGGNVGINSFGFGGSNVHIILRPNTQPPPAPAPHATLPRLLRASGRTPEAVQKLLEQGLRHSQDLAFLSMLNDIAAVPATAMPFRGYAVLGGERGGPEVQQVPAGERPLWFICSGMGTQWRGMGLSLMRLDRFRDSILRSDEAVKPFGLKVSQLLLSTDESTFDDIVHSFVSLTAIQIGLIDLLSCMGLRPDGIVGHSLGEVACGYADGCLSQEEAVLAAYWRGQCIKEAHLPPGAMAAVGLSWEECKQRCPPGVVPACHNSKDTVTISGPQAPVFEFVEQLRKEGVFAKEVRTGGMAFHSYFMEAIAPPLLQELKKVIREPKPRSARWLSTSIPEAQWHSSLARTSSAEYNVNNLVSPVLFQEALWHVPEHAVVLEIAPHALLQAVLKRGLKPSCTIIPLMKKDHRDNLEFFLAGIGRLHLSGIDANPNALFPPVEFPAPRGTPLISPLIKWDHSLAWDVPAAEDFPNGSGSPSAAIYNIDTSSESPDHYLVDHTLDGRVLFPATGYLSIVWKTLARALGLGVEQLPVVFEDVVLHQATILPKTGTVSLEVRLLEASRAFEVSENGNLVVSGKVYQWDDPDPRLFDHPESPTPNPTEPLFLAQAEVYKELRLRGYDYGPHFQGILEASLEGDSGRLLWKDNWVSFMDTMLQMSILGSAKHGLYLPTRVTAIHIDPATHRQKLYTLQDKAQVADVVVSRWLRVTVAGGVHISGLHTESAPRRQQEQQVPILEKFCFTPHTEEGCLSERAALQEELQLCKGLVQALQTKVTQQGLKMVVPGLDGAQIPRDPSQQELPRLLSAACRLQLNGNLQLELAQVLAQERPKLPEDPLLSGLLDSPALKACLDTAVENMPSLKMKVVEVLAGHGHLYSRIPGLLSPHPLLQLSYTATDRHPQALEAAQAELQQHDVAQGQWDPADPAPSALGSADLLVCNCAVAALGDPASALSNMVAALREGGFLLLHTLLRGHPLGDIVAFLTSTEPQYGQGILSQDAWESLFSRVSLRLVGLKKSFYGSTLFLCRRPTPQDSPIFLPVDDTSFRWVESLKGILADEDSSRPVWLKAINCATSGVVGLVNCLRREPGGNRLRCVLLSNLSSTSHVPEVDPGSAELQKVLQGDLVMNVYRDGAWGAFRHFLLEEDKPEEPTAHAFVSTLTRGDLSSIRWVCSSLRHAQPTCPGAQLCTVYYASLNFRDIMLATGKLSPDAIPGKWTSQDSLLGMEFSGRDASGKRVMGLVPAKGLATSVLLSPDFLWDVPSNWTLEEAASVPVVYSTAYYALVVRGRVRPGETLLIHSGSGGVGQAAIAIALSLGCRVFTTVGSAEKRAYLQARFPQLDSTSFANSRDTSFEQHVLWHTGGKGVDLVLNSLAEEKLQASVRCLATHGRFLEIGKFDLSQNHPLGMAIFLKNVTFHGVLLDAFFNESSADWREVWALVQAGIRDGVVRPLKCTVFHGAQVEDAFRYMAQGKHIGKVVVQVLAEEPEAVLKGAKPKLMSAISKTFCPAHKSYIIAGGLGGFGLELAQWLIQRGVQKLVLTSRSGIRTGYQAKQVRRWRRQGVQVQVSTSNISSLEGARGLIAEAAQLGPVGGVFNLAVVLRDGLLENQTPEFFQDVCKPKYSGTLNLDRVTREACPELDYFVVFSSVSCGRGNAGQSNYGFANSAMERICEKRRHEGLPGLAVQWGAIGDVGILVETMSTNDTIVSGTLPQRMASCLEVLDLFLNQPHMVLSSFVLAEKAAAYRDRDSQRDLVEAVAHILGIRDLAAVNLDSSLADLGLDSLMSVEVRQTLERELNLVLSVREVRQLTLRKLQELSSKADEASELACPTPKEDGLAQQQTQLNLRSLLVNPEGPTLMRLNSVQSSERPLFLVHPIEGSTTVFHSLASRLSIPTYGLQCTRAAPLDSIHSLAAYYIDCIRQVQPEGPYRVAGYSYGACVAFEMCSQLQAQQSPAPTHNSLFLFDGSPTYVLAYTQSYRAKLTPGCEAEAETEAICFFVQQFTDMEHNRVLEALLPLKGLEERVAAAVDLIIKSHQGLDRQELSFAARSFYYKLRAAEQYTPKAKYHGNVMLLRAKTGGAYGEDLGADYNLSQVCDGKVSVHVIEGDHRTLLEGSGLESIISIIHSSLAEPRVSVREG
The assay can be described thus: Fatty Acid Synthase Keto-Reductase Domain (FASN KR) Inhibition. In kind it is biochemical. Conditions: mean where tested more than once; read-out: FASN K-R Domain pIC50 (converted). In a few lines: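 Full-length human FASN (300 ng) in 100 mM KH2PO4 pH 7.5 with 360 μM NADPH and 180 mM ethyl acetoacetate (stock); A340 decrease read over 20 min at room temperature.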

Assay [3] has as its system A2780 ovarian cells. The assay can be described thus: A2780 Ovarian Cell Proliferation Assay in Lipid Reduced Medium, without Palmitate. In kind it is cell-based. Particulars: Homo sapiens, A2780; lipid reduced medium, without palmitate, 96 h, MTT; read-out: Proliferation A2780 w/o Palmitate pIC50 (converted). The method, boiled down:
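A2780 cells were seeded in 10% FCS medium and switched next day to 10% lipid-reduced serum without palmitate. Compounds at 0.01–30 μM were added with 0.2% DMSO, 0.2% fatty-acid-free BSA and 0.25% ethanol final. After 96 h, MTT absorbance at 544 nm was normalized to plate controls, and IC50/pIC50 came from a 4-parameter logistic fit.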

Assay [4] deals with A2780 ovarian cells. The assay can be described thus: A2780 Ovarian Cell Proliferation Assay in Lipid Reduced Medium, with Palmitate (control). In kind it is cell-based. Particulars: Homo sapiens, A2780; lipid reduced medium, 25 μM palmitate, 96 h, MTT; read-out: Proliferation A2780 with Palmitate pIC50 (converted). The method, boiled down: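 A2780 cells were seeded in RPMI1640 with 10% FCS, then switched next day to medium with 10% lipid-reduced serum. Compound was added with final 25 μM palmitate, 0.2% fatty-acid-free BSA and 0.2% DMSO, and incubated 96 h at 37 °C. Read-out was MTT absorbance at 544 nm; pIC50 = −log(IC50) from curve fit.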

T1 sequence (P49327 whole entry): as the sequence (P49327 whole entry, the tested form may be a part) above

Consider `Cc1ccc(C(=O)N2CCC(c3ccc(-c4cnn(C)c4)cc3)CC2)cc1NC(=O)C1CN(C2CCC(C)C2)C1` (stereo not shown) [Compound 193, N-(2-methyl-5-(4-(4-(1-methyl-1H-pyrazol-4-yl)phenyl)piperidine-1-carbonyl)phenyl)-1-(3-methylcyclopentyl)azetidine-3-carboxamide], for which the IC50 in assay [1] was 60.3 nM; in assay [2], 178 nM; in assay [3] it was 148 nM; in assay [4], 7080 nM. In addition, the inhibition at 10 µM in assay [1] was found to be 109%.

With `Cc1ccc(C(=O)N2CCC(c3ccc(-c4cnn(C)c4)cc3)CC2)cc1NC(=O)C1CCN(C2CCC(C)C2)C1` (stereo not shown) [Compound 194, N-(2-methyl-5-(4-(4-(1-methyl-1H-pyrazol-4-yl)phenyl)piperidine-1-carbonyl)phenyl)-1-(3-methylcyclopentyl)pyrrolidine-3-carboxamide], the IC50 in assay [1] is 117 nM; in assay [2] it was 214 nM; in assay [3], 158 nM; in assay [4] it was around 8710 nM. Besides, the inhibition at 10 µM in assay [1] was 102%.

On to `Cc1ccc(C(=O)N2CCC(c3ccc(-c4cnn(C)c4)cc3)CC2)cc1NC(=O)C1CCN(CCC(C)C)C1` (stereo not shown) [Compound 195, 1-isopentyl-N-(2-methyl-5-(4-(4-(1-methyl-1H-pyrazol-4-yl)phenyl)piperidine-1-carbonyl)phenyl)pyrrolidine-3-carboxamide], for which the IC50 in assay [1] is 69.2 nM; in assay [2], 191 nM; in assay [3], 110 nM; in assay [4], 9120 nM. In addition, in assay [1], the inhibition at 10 µM turned out to be 101%.

With `CCCCC(C)N1CC(C(=O)Nc2cc(C(=O)N3CCC(c4ccc(-c5cnn(C)c5)cc4)CC3)ccc2C)C1` (stereo not shown) [Compound 196, 1-(hexan-2-yl)-N-(2-methyl-5-(4-(4-(1-methyl-1H-pyrazol-4-yl)phenyl)piperidine-1-carbonyl)phenyl)azetidine-3-carboxamide], the IC50 was 162 nM in assay [1], 282 nM in assay [2], 407 nM in assay [3] and around 6170 nM in assay [4]. Moreover, the inhibition at 10 µM in assay [1] turned out to be 97%.

As to `CCCCC(C)N1CCC(C(=O)Nc2cc(C(=O)N3CCC(c4ccc(-c5cnn(C)c5)cc4)CC3)ccc2C)C1` (stereo not shown) [Compound 197, 1-(hexan-2-yl)-N-(2-methyl-5-(4-(4-(1-methyl-1H-pyrazol-4-yl)phenyl)piperidine-1-carbonyl)phenyl)pyrrolidine-3-carboxamide], the IC50 was 110 nM in assay [1], 309 nM in assay [2], 288 nM in assay [3] and above 10000 nM in assay [4]. The inhibition at 10 µM in assay [1] is 98%.

For the compound `Cc1ccc(C(=O)N2CCC(c3ccc(-c4cnn(C)c4)cc3)CC2)cc1NC(=O)c1nccs1` [Compound 198, N-(2-methyl-5-(4-(4-(1-methyl-1H-pyrazol-4-yl)phenyl)piperidine-1-carbonyl)phenyl)thiazole-2-carboxamide], the IC50 was 135 nM in assay [1], 372 nM in assay [2], 603 nM in assay [3] and above 10000 nM in assay [4]. Also, the inhibition at 10 µM in assay [1] was found to be 100%.

As for `COc1ccc(-c2ccc(C3CCN(C(=O)c4ccc(C)c(NC(=O)c5ccc(NC(C)C)nc5)c4)CC3)cc2)cc1` [Compound 199, 6-(isopropylamino)-N-(5-(4-(4′-methoxy-[1,1′-biphenyl]-4-yl)piperidine-1-carbonyl)-2-methylphenyl)nicotinamide], the IC50 was around 676 nM in assay [1], 724 nM in assay [2], 562 nM in assay [3] and 617 nM in assay [4]. In addition, the inhibition at 10 µM in assay [1] is 59%.

For `COc1ccccc1-c1ccc(C2CCN(C(=O)c3ccc(C)c(NC(=O)c4ccc(NC(C)C)nc4)c3)CC2)cc1` [Compound 200, 6-(isopropylamino)-N-(5-(4-(2′-methoxy-[1,1′-biphenyl]-4-yl)piperidine-1-carbonyl)-2-methylphenyl)nicotinamide], the IC50 in assay [1] is 646 nM; in assay [2], 646 nM; in assay [3], 708 nM; in assay [4], 4570 nM. The inhibition at 10 µM in assay [1] was 86%.

As to `COc1cccc(-c2ccc(C3CCN(C(=O)c4ccc(C)c(NC(=O)c5ccc(NC(C)C)nc5)c4)CC3)cc2)c1` [Compound 201, 6-(isopropylamino)-N-(5-(4-(3′-methoxy-[1,1′-biphenyl]-4-yl)piperidine-1-carbonyl)-2-methylphenyl)nicotinamide], the IC50 was 214 nM in assay [1], 380 nM in assay [2], 513 nM in assay [3] and 933 nM in assay [4]. Besides, the inhibition at 10 µM in assay [1] came to 86%.

With `COc1ccc(C(=O)N2CC(c3ccc(-c4cnn(C)c4)cc3)C2)cc1NC(=O)c1ccc(NC(C)C)nc1` [Compound 202, 6-(isopropylamino)-N-(2-methoxy-5-(3-(4-(1-methyl-1H-pyrazol-4-yl)phenyl)azetidine-1-carbonyl)phenyl)nicotinamide], the IC50 was 52.5 nM in assay [1], 151 nM in assay [2], 58.9 nM in assay [3] and above 10000 nM in assay [4]. The inhibition at 10 µM in assay [1] came to 113%.

As to `Cc1ccc(C(=O)N2CCC(c3ccc(-c4cnn(C)c4)cc3)C2)cc1NC(=O)c1ccc(Cl)nc1` (stereo not shown) [Compound 203, 6-chloro-N-(2-methyl-5-(3-(4-(1-methyl-1H-pyrazol-4-yl)phenyl)pyrrolidine-1-carbonyl)phenyl)nicotinamide], the IC50 in assay [1] is 282 nM; in assay [2], 977 nM; in assay [3] it was 372 nM; in assay [4] it was above 10000 nM. Further, in assay [1], the inhibition at 10 µM is 97%.

With `Cc1ccc(C(=O)N2CCC(c3ccc(-c4cnn(C)c4)cc3)C2)cc1NC(=O)c1ccc(N2CCOCC2)nc1` (stereo not shown) [Compound 204, N-(2-methyl-5-(3-(4-(1-methyl-1H-pyrazol-4-yl)phenyl)pyrrolidine-1-carbonyl)phenyl)-6-morpholinonicotinamide], the IC50 is 129 nM in assay [1], 398 nM in assay [2], 107 nM in assay [3] and above 10000 nM in assay [4]. In addition, in assay [1], the inhibition at 10 µM is 107%.

As to `CCN1CC(C(=O)Nc2cc(C(=O)N3CCC(c4ccc(-c5cnn(C)c5)cc4)CC3)ccc2C)C1` [Compound 205, 1-ethyl-N-(2-methyl-5-(4-(4-(1-methyl-1H-pyrazol-4-yl)phenyl)piperidine-1-carbonyl)phenyl)azetidine-3-carboxamide], the IC50 was 269 nM in assay [1], 589 nM in assay [2], 355 nM in assay [3] and above 10000 nM in assay [4]. The inhibition at 10 µM in assay [1] turned out to be 95%.

Turning to `Cc1ccc(C(=O)N2CCC(c3ccc(-c4cnn(C)c4)cc3)CC2)cc1NC(=O)C1CN(C(C)C)C1` [Compound 206, 1-isopropyl-N-(2-methyl-5-(4-(4-(1-methyl-1H-pyrazol-4-yl)phenyl)piperidine-1-carbonyl)phenyl)azetidine-3-carboxamide], the IC50 in assay [1] was 158 nM; in assay [2], 457 nM; in assay [3], 151 nM; in assay [4], above 10000 nM. In addition, the inhibition at 10 µM in assay [1] stood at 99%.

`Cc1ccc(C(=O)N2CCC(c3ccc(-c4cnn(C)c4)cc3)CC2)cc1NC(=O)C1CCN(C(C)C)C1` (stereo not shown) [Compound 207, 1-isopropyl-N-(2-methyl-5-(4-(4-(1-methyl-1H-pyrazol-4-yl)phenyl)piperidine-1-carbonyl)phenyl)pyrrolidine-3-carboxamide]: the IC50 was 132 nM in assay [1], 479 nM in assay [2], 182 nM in assay [3] and above 10000 nM in assay [4]. For the same compound, the inhibition at 10 µM in assay [1] turned out to be 105%.

With `CCCN1CC(C(=O)Nc2cc(C(=O)N3CCC(c4ccc(-c5cnn(C)c5)cc4)CC3)ccc2C)C1` [Compound 208, N-(2-methyl-5-(4-(4-(1-methyl-1H-pyrazol-4-yl)phenyl)piperidine-1-carbonyl)phenyl)-1-propylazetidine-3-carboxamide], the IC50 in assay [1] was 269 nM; in assay [2], 631 nM; in assay [3] it was 275 nM; in assay [4] it was above 10000 nM. Further, in assay [1], the inhibition at 10 µM came to 101%.

Consider `Cc1ccc(C(=O)N2CCC(c3ccc(-c4cnn(C)c4)cc3)CC2)cc1NC(=O)C1CCN(C2CCC2)CC1` [Compound 209, 1-cyclobutyl-N-(2-methyl-5-(4-(4-(1-methyl-1H-pyrazol-4-yl)phenyl)piperidine-1-carbonyl)phenyl)piperidine-4-carboxamide], for which the IC50 is 31.6 nM in assay [1], 74.1 nM in assay [2], 10 nM in assay [3] and above 10000 nM in assay [4]. Besides, the inhibition at 10 µM in assay [1] was found to be 105%.
